Results on 18 molecules are retold here after patent US20180170903A1, “PYRIDIN-3-YL ACETIC ACID DERIVATIVES AS INHIBITORS OF HUMAN IMMUNODEFICIENCY VIRUS REPLICATION” (ViiV HEALTHCARE UK (NO.5) LIMITED, priority 2015, published 2018).

Read-outs that look alike come from different tables or passages of the source. Some results are limits rather than exact numbers.

The subject of this experiment is NL-RLuc virus (recombinant HIV NL4-3 proviral clone with Renilla Luciferase) in MT-2 cells. In words: Inhibition of HIV Replication (NL-RLuc luciferase reporter virus, MT-2 cells). Type of experiment: cell-based. The following applies: MT2, 120 h. The source says:
Inhibition of HIV Replication:
A recombinant NL-RLuc proviral clone was constructed in which a section of the nef gene from NL4-3 was replaced with the Renilla Luciferase gene. This virus is fully infectious and can undergo multiple cycles of replication in cell culture. In addition, the luciferous reporter provides a simple and easy method for quantitating the extent of virus growth and consequently, the antiviral activity of test compounds. The plasmid pNLRLuc contains the proviral NL-Rluc DNA cloned into pUC 18 at the PvuII site. The NL-RLuc virus was prepared by transfection of 293T cells with the plasmid pNLRLuc. Transfections were performed using the LipofectAMINE PLUS kit from Invitrogen (Carlsbad, Calif.) according to the manufacturer and the virus generated was titered in MT-2 cells. For susceptibility analyses, the titrated virus was used to infect MT-2 cells in the presence of compound, and after 5 days of incubation, cells were processed and quantitated for virus growth by the amount of expressed luciferase. Assay media was RPMI 1640 supplemented with 10% heat inactivated fetal bovine serum (FBS), 100 units/ml penicillin G/100 units/ml streptomycin, 10 mM HEPES buffer pH 7.55 and 2 mM L-glutamine. The results from at least 2 experiments were used to calculate the EC50 values. Luciferase was quantitated using the Dual Luciferase kit from Promega (Madison, Wis.). Susceptibility of viruses to compounds was determined by incubation in the presence of serial dilutions of the compound. The 50% effective concentration (EC50) was calculated by using the exponential form of the median effect equation where (Fa)=1/[1+(ED50/drug conc.)^m](Johnson V A, Byington R T. Infectivity Assay. In Techniques in HIV Research. ed. Aldovini A, Walker B D. 71-76. New York: Stockton Press. 1990). Activity equal to A refers to a compound having an EC50≤100 nM, while B and C denote compounds having an EC50 between 100 nM and 1 uM (B) or >1 uM (C).
A general note: In a reporter assay the amount or activity of a reporter protein is the signal.

With `Cc1nc(C)c([C@H](OC(C)(C)C)C(=O)O)c(N2CCC(C)(C)CC2)c1-c1ccc(COC(C)(C)C)cc1` [Example 49, (S)-2-(tert-Butoxy)-2-(5-(4-(tert-butoxymethyl)phenyl)-4-(4,4-dimethylpiperidin-1-yl)-2,6-dimethylpyridin-3-yl)acetic acid], the EC50 (read-out: Activity) was less than 0.1 µM.

For the molecule `Cc1nc(C)c([C@H](OC(C)(C)C)C(=O)O)c(N2CCC(C)(C)CC2)c1-c1ccc(CN(Cc2ccc(F)cc2)C(=O)c2ccc(C(F)(F)F)cc2)cc1` [Example 46, (S)-2-(tert-butoxy)-2-(4-(4,4-dimethylpiperidin-1-yl)-5-(4-((N-(4-fluorobenzyl)-4-(trifluoromethyl)benzamido)methyl)phenyl)-2,6-dimethylpyridin-3-yl)acetic acid], the EC50 (read-out: Activity) is less than 0.1 µM and the EC50 (read-out: EC50 μM) turned out to be 0.016 µM. As to `Cc1nc(C)c([C@H](OC(C)(C)C)C(=O)O)c(N2CCC(C)(C)CC2)c1-c1ccc(CN(Cc2ccc(F)cc2)C(=O)C2CCC2)cc1` [Example 42, (S)-2-(tert-butoxy)-2-(4-(4,4-dimethylpiperidin-1-yl)-5-(4-((N-(4-fluorobenzyl)cyclobutanecarboxamido)methyl)phenyl)-2,6-dimethylpyridin-3-yl)acetic acid], where the note is “read-out: Activity”, the EC50 is less than 0.1 µM.

`Cc1nc(C)c([C@H](OC(C)(C)C)C(=O)O)c(N2CCC(C)(C)CC2)c1-c1ccc(CN(C)Cc2ccc(F)cc2)cc1` [Example 7, (S)-2-(tert-butoxy)-2-(4-(4,4-dimethylpiperidin-1-yl)-5-(4-(((4-fluorobenzyl)(methyl)amino)methyl)phenyl)-2,6-dimethylpyridin-3-yl)acetic acid]: the EC50 (read-out: Activity) was less than 0.1 µM.

With `Cc1nc(C)c([C@H](OC(C)(C)C)C(=O)O)c(N2CCC(C)(C)CC2)c1-c1ccc(CN2CCOCC2)cc1` [Example 2, (S)-2-(tert-Butoxy)-2-(4-(4,4-dimethylpiperidin-1-yl)-2,6-dimethyl-5-(4-(morpholinomethyl)phenyl)pyridin-3-yl)acetic acid], the EC50 was 0.1 to 1 µM (read-out: Activity) and 0.113 µM (read-out: EC50 μM).

With `Cc1cc(OCc2ccc(-c3c(C)nc(C)c([C@H](OC(C)(C)C)C(=O)O)c3N3CCC(C)(C)CC3)cc2)ccc1Cl` [Example 50, (S)-2-(tert-Butoxy)-2-(5-(4-((4-chloro-3-methylphenoxy)methyl)phenyl)-4-(4,4-dimethylpiperidin-1-yl)-2,6-dimethylpyridin-3-yl)acetic acid], the EC50 (read-out: Activity) is less than 0.1 µM. In the case of `Cc1nc(C)c([C@H](OC(C)(C)C)C(=O)O)c(N2CCC(C)(C)CC2)c1-c1ccc(CNCc2ccccc2)cc1` [Example 14, (S)-2-(5-(4-((benzylamino)methyl)phenyl)-4-(4,4-dimethylpiperidin-1-yl)-2,6-dimethylpyridin-3-yl)-2-(tert-butoxy)acetic acid], the EC50 (read-out: Activity) was less than 0.1 µM. Take `Cc1nc(C)c([C@H](OC(C)(C)C)C(=O)O)c(N2CCC(C)(C)CC2)c1-c1ccc(CN(Cc2ccc(F)cc2)C(=O)COc2ccccc2)cc1` [Example 30, (S)-2-(tert-butoxy)-2-(4-(4,4-dimethylpiperidin-1-yl)-5-(4-((N-(4-fluorobenzyl)-2-phenoxyacetamido)methyl)phenyl)-2,6-dimethylpyridin-3-yl)acetic acid]: the EC50 by setting is: (read-out: Activity) 0.1 to 1 µM; (read-out: EC50 μM) 0.118 µM. `Cc1nc(C)c([C@H](OC(C)(C)C)C(=O)O)c(N2CCC(C)(C)CC2)c1-c1ccc(CNCc2ccc(Cl)c(Cl)c2)cc1` [Example 12, (S)-2-(tert-butoxy)-2-(5-(4-(((3,4-dichlorobenzyl)amino)methyl)phenyl)-4-(4,4-dimethylpiperidin-1-yl)-2,6-dimethylpyridin-3-yl)acetic acid]: under “read-out: Activity”, the EC50 was less than 0.1 µM. On the same count and under the same terms, the same measure for `COc1ccc(C(=O)N(Cc2ccc(F)cc2)Cc2ccc(-c3c(C)nc(C)c([C@H](OC(C)(C)C)C(=O)O)c3N3CCC(C)(C)CC3)cc2)cc1` [Example 45, (S)-2-(tert-butoxy)-2-(4-(4,4-dimethylpiperidin-1-yl)-5-(4-((N-(4-fluorobenzyl)-4-methoxybenzamido)methyl)phenyl)-2,6-dimethylpyridin-3-yl)acetic acid]: less than 0.1 µM. Consider `Cc1nc(C)c([C@H](OC(C)(C)C)C(=O)O)c(N2CCC(C)(C)CC2)c1-c1ccc(CN(Cc2ccc(F)cc2)S(=O)(=O)c2ccccc2)cc1` [Example 36, (S)-2-(tert-butoxy)-2-(4-(4,4-dimethylpiperidin-1-yl)-5-(4-((N-(4-fluorobenzyl)phenylsulfonamido)methyl)phenyl)-2,6-dimethylpyridin-3-yl)acetic acid], for which the EC50 (read-out: Activity) is less than 0.1 µM. Consider `Cc1nc(C)c([C@H](OC(C)(C)C)C(=O)O)c(N2CCC(C)(C)CC2)c1-c1ccc(CSCc2ccc(F)cc2)cc1` [Example 52, (S)-2-(tert-Butoxy)-2-(4-(4,4-dimethylpiperidin-1-yl)-5-(4-(((4-fluorobenzyl)thio)methyl)phenyl)-2,6-dimethylpyridin-3-yl)acetic acid], for which the EC50 (read-out: Activity) was less than 0.1 µM. In the case of `COC(=O)c1ccc(CNCc2ccc(-c3c(C)nc(C)c([C@H](OC(C)(C)C)C(=O)O)c3N3CCC(C)(C)CC3)cc2)cc1` [Example 18, (S)-2-(tert-butoxy)-2-(4-(4,4-dimethylpiperidin-1-yl)-5-(4-(((4-(methoxycarbonyl)benzyl)amino)methyl)phenyl)-2,6-dimethylpyridin-3-yl)acetic acid], the EC50 is 0.1 to 1 µM (read-out: Activity) and 0.228 µM (read-out: EC50 μM).

For the molecule `CON(Cc1ccc(F)cc1)Cc1ccc(-c2c(C)nc(C)c([C@H](OC(C)(C)C)C(=O)O)c2N2CCC(C)(C)CC2)cc1` [Example 10, (S)-2-(tert-butoxy)-2-(4-(4,4-dimethylpiperidin-1-yl)-5-(4-(((4-fluorobenzyl)(methoxy)amino)methyl)phenyl)-2,6-dimethylpyridin-3-yl)acetic acid], the EC50 (read-out: Activity) is less than 0.1 µM. As for `COc1cccc(C(=O)N(Cc2ccc(F)cc2)Cc2ccc(-c3c(C)nc(C)c([C@H](OC(C)(C)C)C(=O)O)c3N3CCC(C)(C)CC3)cc2)c1` [Example 37, (S)-2-(tert-butoxy)-2-(4-(4,4-dimethylpiperidin-1-yl)-5-(4-((N-(4-fluorobenzyl)-3-methoxybenzamido)methyl)phenyl)-2,6-dimethylpyridin-3-yl)acetic acid], for the setting “read-out: Activity”, the EC50 is less than 0.1 µM. The same measure, in the same setting: next, `Cc1nc(C)c([C@H](OC(C)(C)C)C(=O)O)c(N2CCC(C)(C)CC2)c1-c1ccc(CNCCc2ccc(F)cc2)cc1` [Example 11, (S)-2-(tert-butoxy)-2-(4-(4,4-dimethylpiperidin-1-yl)-5-(4-(((4-fluorophenethyl)amino)methyl)phenyl)-2,6-dimethylpyridin-3-yl)acetic acid]: less than 0.1 µM; `Cc1nc(C)c([C@H](OC(C)(C)C)C(=O)O)c(N2CCC(C)(C)CC2)c1-c1ccc(COCc2ccc(F)cc2)cc1` [Example 51, (S)-2-(tert-Butoxy)-2-(4-(4,4-dimethylpiperidin-1-yl)-5-(4-(((4-fluorobenzyl)oxy)methyl)phenyl)-2,6-dimethylpyridin-3-yl)acetic acid]: more than 1 µM. In the case of `COc1ccc(CCNCc2ccc(-c3c(C)nc(C)c([C@H](OC(C)(C)C)C(=O)O)c3N3CCC(C)(C)CC3)cc2)cc1` [Example 8, (S)-2-(tert-butoxy)-2-(4-(4,4-dimethylpiperidin-1-yl)-5-(4-(((4-methoxyphenethyl)amino)methyl)phenyl)-2,6-dimethylpyridin-3-yl)acetic acid], the EC50 (read-out: Activity) was less than 0.1 µM and the EC50 (read-out: EC50 μM) came to 0.09 µM.
